Test results from article PMC7504817, “Phenylalanine Stereoisomers of CJ-15,208 and [D-Trp]CJ-15,208 Exhibit Distinctly Different Opioid Activity Profiles” (Molecules, 2020).
Entries after “also recorded” stand apart in the source; their conditions may differ.

Key:
rat KOR [1] = molecular target: T1, rat KOR (Rattus norvegicus, UniProt P34975); assay: biochemical
[2] = Metabolic stability in mouse liver microsomes; type: in vitro ADME; details: pH 7.4, 5 µM peptide, 0.25 mg/mL protein, with NADPH, 37 °C, read-out: t1/2 in mouse liver microsomes
Description: The macrocyclic tetrapeptide (5 µM) in 1% acetonitrile was incubated with mouse liver microsomes (0.25 mg/mL protein, Xenotech, Lenexa, KS, USA) at 37 °C in the presence or absence of co-factor NADPH RapidStart System (1 mM, Xenotech) or NADPH solution (Sigma, St. Louis, MO, USA) in potassium phosphate buffer (50 mM, pH 7.4). Aliquots (100 µL) taken at 0, 5, 15, 30, 60 and 120 min were quenched with ice-cold acetonitrile (1 vol) containing internal standard ([D-NMeAla^2]CJ-15,208 [26], 5 µM) to precipitate the proteins. The lack of endogenous interference with the analysis of the stereoisomer or internal standard was confirmed by analyzing samples lacking the macrocyclic tetrapeptide.
Following centrifugation at 10,000× g rpm for 10 min, the supernatant (50 µL) was diluted with water (75 µL), stored overnight at −20 °C and analyzed by LC-MS/MS using methodology similar to that described for [D-Trp]CJ-15,208 [32]. Liquid chromatography was performed on a Hypersil BDS C8 column (50 mm × 2.1 mm, 3 µm) with a flow rate of 0.2 mL/min and an injection volume of 20 µL using an Acquity UPLC system (Waters, Milford, MA, USA). The peptides were separated using a gradient of aqueous acetonitrile containing 0.08% formic acid of 20% B (0–2 min), 20–50% B (2–3 min), 50–80% B (3–6 min), 80% B (6–7 min), 80–20% B (7–8 min) and 20% B (8–10 min).
ESI-MS/MS was performed on a Waters Quatro triple quadrupole instrument operating in the positive ion multiple reaction monitoring mode. Data acquisition was carried out with Mass Lynx 4.1 software with the following settings: capillary voltage, 2500 V; cone voltage, 30 V; source temperature, 100 °C; desolvation temperature, 250 °C; cone gas flow, 279 L/h; desolvation gas flow, 1157 L/h; LM 1 resolution, 14; HM 1 resolution, 14; ion energy 1, 1.0; MS/MS mode entrance, -1; MS/MS collision energy, 35 eV; MS/MS mode exit, 2; LM 2 resolution, 13.0; HM 2 resolution, 13.0; ion energy 2, 1.5; multiplier, 650; collision cell pressure, 1.63 × 10^−3 mbar; collision gas, argon. The transition m/z 578.2 ([M + H]^+) → 217.2 was monitored to determine the peak area counts of the stereoisomers, and m/z 566.2 ([M + H]^+) → 232.9 was monitored to determine the peak area counts of the internal standard (collision energy 22 eV) with the following settings: dwell time, 0.3 s; delay, 0.05 s.

C57BL/6J mice [3] = assay: Opioid receptor involvement in antinociception (antagonist pretreatment, tail-withdrawal assay); type: in vivo, mouse; details: i.c.v. (1, 3, 4, 5 at 10 nmol, 2 at 100 nmol); pretreatment with β-FNA, nor-BNI or naltrindole
C57BL/6J mice [4] = details: mouse, in vivo
rat KOR [5] = molecular target: T1, rat KOR; details: ratio Ki(MOR)/Ki(KOR)
rat MOR = molecular target: T2, rat MOR (Rattus norvegicus, UniProt P33535); assay: Radioligand equilibrium competition binding, MOR; details: [3H]DAMGO; membranes from CHO cells expressing rat MOR; mean ± SEM, at least three experiments
T2 construct: expressed in transfected cells

C57BL/6J mice [6] = assay: 55 °C warm-water tail-withdrawal assay (antinociception); type: in vivo, mouse; set-up: key to ED50 p.o. (symbol: not calculable): ~: Maximum antinociception not achieved, precluding calculation of an ED50 value; details: for duration of significant antinociception: i.c.v. administration; for ED50 (and 95% C.I.) i.c.v. / ED50 (and 95% C.I.) p.o.: antinociception at peak response
Description: For intracerebroventricular (i.c.v.) administration the macrocyclic tetrapeptides were dissolved in dimethyl sulfoxide (DMSO), followed by addition of sterile saline (0.9%) so that the final vehicle was 50% DMSO and 50% saline, and the i.c.v. injections performed as described previously. This concentration of DMSO was not observed to have antinociceptive or behavioral effects in previous use. For per os (p.o.) administration the macrocyclic tetrapeptides were administered in 10% Solutol in 0.9% saline. All solutions for animal administration were prepared fresh daily.
The 55 °C warm-water tail-withdrawal assay was performed in mice as previously described, with the latency of the mouse to withdraw its tail from the water taken as the endpoint (a cut-off time of 15 sec was used in this assay). Antinociception was calculated according to the following formula: % antinociception = 100 × (test latency − control latency)/(15 − control latency). Tail-withdrawal data points are the means of 8–16 mice, unless otherwise indicated, with SEM shown by error bars.
All dose-response lines were analyzed by regression, and ED50 (effective dose producing 50% antinociception) values and 95% confidence intervals (C.I.) determined using individual data points from graded dose-response curves with Prism 8.0 software (GraphPad, La Jolla, CA, USA). Percent antinociception was used to determine within group effects and to allow comparison to baseline latency in tail-withdrawal experiments. The statistical significance of differences between ED50 values was determined by evaluation of the ED50 value shift via nonlinear regression modeling with Prism software. Significant differences in behavioral data were analyzed by ANOVA (one-way or two-way with repeated measures (RM), as appropriate). Significant results were further analyzed with Sidak’s, Tukey’s, or Dunnett’s multiple comparison post hoc tests, as appropriate. Data for conditioned place preference experiments were analyzed by two-way RM ANOVA, with analyses examining the main effect of conditioned place preference phase (e.g., pre- or post-conditioning) and the interaction of drug pretreatment. Significant effects were further analyzed using Sidak’s HSD post hoc testing. All data are presented as mean ± SEM, with significance set at p < 0.05.

C57BL/6J mice [7] = assay: Acute antinociceptive tolerance (tail-withdrawal assay, dosing at 0 and 8 h); details: i.c.v.; for Fold-Shift, Naïve ED50 vs. Second ED50: 0 h vs 8 h; for acute antinociceptive tolerance: ED50 at 8 h vs 0 h; for Naïve ED50 (95% C.I.): naïve C57BL/6J mice, tail-withdrawal assay
KOR = molecular target: T3, KOR (Mus musculus, UniProt P33534); assay: Antagonist activity against KOR-selective agonist U50,488 (tail-withdrawal assay); type: in vivo; details: stereoisomer 30 nmol i.c.v. pretreatment; U50,488 10 mg/kg i.p.
T3 construct: from tissue; host or cells: whole animal, C57BL/6J mice

C57BL/6J mice [8] = details: mouse, in vivo; remark: listed apart in the source
C57BL/6J mice [9] = details: mouse, in vivo; remark: listed apart in the source

T1 sequence (P34975 whole entry): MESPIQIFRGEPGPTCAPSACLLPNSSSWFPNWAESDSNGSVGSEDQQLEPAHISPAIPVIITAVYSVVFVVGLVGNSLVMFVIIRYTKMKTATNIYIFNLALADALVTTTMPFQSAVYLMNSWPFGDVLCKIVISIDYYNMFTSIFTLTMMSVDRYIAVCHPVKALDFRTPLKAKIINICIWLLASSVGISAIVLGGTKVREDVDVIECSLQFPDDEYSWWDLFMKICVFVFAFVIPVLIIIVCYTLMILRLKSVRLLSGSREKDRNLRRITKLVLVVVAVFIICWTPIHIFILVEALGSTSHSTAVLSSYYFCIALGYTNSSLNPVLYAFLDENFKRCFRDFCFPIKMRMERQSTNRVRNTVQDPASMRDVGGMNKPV
T2 sequence (P33535 whole entry): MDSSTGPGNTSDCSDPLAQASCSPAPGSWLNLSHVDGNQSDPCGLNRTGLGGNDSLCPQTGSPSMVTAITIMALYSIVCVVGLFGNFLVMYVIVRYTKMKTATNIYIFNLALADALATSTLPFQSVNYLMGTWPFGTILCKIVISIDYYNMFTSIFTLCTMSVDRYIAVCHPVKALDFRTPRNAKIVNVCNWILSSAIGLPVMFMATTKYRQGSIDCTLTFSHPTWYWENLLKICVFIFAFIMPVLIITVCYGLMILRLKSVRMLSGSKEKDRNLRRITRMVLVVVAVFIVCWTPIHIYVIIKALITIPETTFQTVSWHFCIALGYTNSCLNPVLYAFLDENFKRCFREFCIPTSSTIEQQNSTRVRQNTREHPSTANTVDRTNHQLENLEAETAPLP
T3 sequence (P33534 whole entry): as the sequence (P34975 whole entry) above, with E11D, A17S, P51S, V308A counted along it

| SMILES | Ki (rat KOR [1]) [µM] | half-life at 5 µM [2] [min] | Receptors Involved (in antinociception) (C57BL/6J mice [3]) | effect on coordinated locomotor performance (rotarod) vs vehicle (C57BL/6J mice [4]) | Selectivity Ki (MOR) Ki (KOR) (rat KOR [5]) | Ki (rat MOR) [nM] | time of peak antinociception (C57BL/6J mice [6]; after i.c.v. administration) [min] | duration of significant antinociception (C57BL/6J mice [6]) | ED50 (and 95% C.I.) i.c.v. (C57BL/6J mice [6]; i.c.v., C57BL/6J mice) | Fold-Shift, Naïve ED50 vs. Second ED50 (C57BL/6J mice [7]) [fold] | acute antinociceptive tolerance (C57BL/6J mice [7]) | Naïve ED50 (95% C.I.) (C57BL/6J mice [7]) | antinociceptive efficacy (C57BL/6J mice [6]; p.o.) | time of peak antinociception (C57BL/6J mice [6]; p.o. administration) [min] | ED50 (and 95% C.I.) p.o. (C57BL/6J mice [6]; p.o., C57BL/6J mice) | other results |
| --- | --- | --- | --- | --- | --- | --- | --- | --- | --- | --- | --- | --- | --- | --- | --- | --- |
| O=C1N[C@@H](Cc2ccccc2)C(=O)N2CCC[C@@H]2C(=O)N[C@H](Cc2ccccc2)C(=O)N[C@H]1Cc1c[nH]c2ccccc12 (single isomer, unassigned) [Stereoisomer 2, cyclo[Phe-D-Pro-D-Phe-Trp]] | 0.362 ± 0.051 | 15 | KOR- and MOR-mediated antinociception | lacked any significant effect | 11 | 3920 ± 200 | 30 | 90 min | 20.4 (10–58.7) nmol | 6.13 | the increase was not statistically significant | 20.4 (10–58.7) nmol |  |  |  | antinociception at the highest dose tested (C57BL/6J mice [6]; 100 nmol, i.c.v.): approximately 70%; antinociception at the highest oral dose tested (C57BL/6J mice [6]; 30 mg/kg, p.o.): 45–60%; ED50 p.o. (symbol: not calculable) (C57BL/6J mice [6]; p.o., C57BL/6J mice): ~; ED50 (95% C.I.) Pretreated Mice (C57BL/6J mice [7]; 8 h after pretreatment with ED50 dose of the same compound, * significantly different from naïve): 125 (89.9–224) nmol |
| O=C1N[C@H](Cc2ccccc2)C(=O)N2CCC[C@@H]2C(=O)N[C@@H](Cc2ccccc2)C(=O)N[C@H]1Cc1c[nH]c2ccccc12 (single isomer, unassigned) [Stereoisomer 1, cyclo[D-Phe-D-Pro-Phe-Trp]] | 5.12 ± 0.69 | 54 | all three opioid receptors contributed to the antinociception; also recorded: KOR, MOR, DOR | limited impairment of performance |  | > 10000 | 20 | intermediate duration | 0.75 (0.36–1.44) nmol | 31.2 | greater acute antinociceptive tolerance than CJ-15,208 | 0.65 (0.31–1.31) nmol | full antinociception | 20 to 30 | 7.62 (5.12–12.2) mg/kg | antagonism of U50,488 antinociception (KOR antagonist activity) (KOR): significant antagonism of U50,488 |
| O=C1N[C@H](Cc2ccccc2)C(=O)N2CCC[C@@H]2C(=O)N[C@H](Cc2ccccc2)C(=O)N[C@H]1Cc1c[nH]c2ccccc12 (single isomer, unassigned) [Stereoisomer 3, cyclo[D-Phe-D-Pro-D-Phe-Trp]] | 2.56 ± 0.48 | 6 | KOR- and DOR-mediated | lacked any significant effect | 3 | 7780 ± 410 | 20 | 45 min | 1.00 (0.64–1.60) nmol | 5.19 | greater acute antinociceptive tolerance than CJ-15,208 | 1.00 (0.64–1.60) nmol | full antinociception | 20 to 30 | 4.12 (3.30–5.31) mg/kg | effect on ambulation vs vehicle (C57BL/6J mice [8]): elevated ambulations at several time-points; conditioned place preference or aversion (C57BL/6J mice [9]): no significant preference or aversion |
